Where a name gives a salt, the structure may show the parent alone. Read-outs that look alike come from different tables or passages of the source.
Molecular target: T1, Human IP6K1 (Homo sapiens, UniProt Q92551)
T1 construct: GST (N, cleaved yes); made in house; host or cells: C43 E. coli, pGEX-6P-2
Experiment: IP6K1 high-throughput screen of the Sigma LOPAC (ADP-Glo Max, single point);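 further: final compound concentration 10µM in 5% DMSO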
Type: biochemical

[1] = LOPAC single-point screen, ADP-Glo Max raw signal per well
[2] = LOPAC single-point screen, Z-score against plate average and StDev
[3] = Sigma LOPAC single-point screen, ADP-Glo Max raw signal per well
[4] = Sigma LOPAC single-point screen, Z-score from plate average and StDev
[5] = LOPAC single-point screen, Z-score from raw signal with plate average and StDev
[6] = LOPAC single-point screen, ADP-Glo Max luminescence raw signal per well
[7] = LOPAC single-point screen, Z-score relative to plate average and StDev

T1 sequence (Q92551 whole entry): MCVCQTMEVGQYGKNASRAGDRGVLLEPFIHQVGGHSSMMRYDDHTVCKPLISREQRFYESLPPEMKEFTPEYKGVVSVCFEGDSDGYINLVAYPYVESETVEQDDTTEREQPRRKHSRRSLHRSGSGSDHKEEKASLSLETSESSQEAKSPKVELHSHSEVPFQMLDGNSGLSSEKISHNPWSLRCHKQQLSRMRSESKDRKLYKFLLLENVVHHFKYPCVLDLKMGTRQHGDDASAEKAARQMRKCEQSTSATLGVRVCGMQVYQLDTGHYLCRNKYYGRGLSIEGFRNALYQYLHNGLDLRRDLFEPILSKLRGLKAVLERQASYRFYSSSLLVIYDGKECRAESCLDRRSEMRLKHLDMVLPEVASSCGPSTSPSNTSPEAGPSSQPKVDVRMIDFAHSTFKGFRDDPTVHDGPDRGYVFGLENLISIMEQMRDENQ

With O=C(O)/C=C/C(=O)O.O=C(O)/C=C/C(=O)O.O=C(O)/C=C/C(=O)O.O=C1CCCN1CC#CCN1CCCC1.O=C1CCCN1CC#CCN1CCCC1 [Oxotremorine sesquifumarate salt] the “Raw Signal” value [1] was 55438 and the Z-score [2] was 0.1755.
With CC(C)(C)NC[C@H](O)COc1nsnc1N1CCOCC1.O=C(O)/C=C\C(=O)O [S(-)-Timolol maleate] the “Raw Signal” value [1] was 57221 and the Z-score [2] was 0.2326.
With O=[N+]([O-])c1cc(O)c(O)c([N+](=O)[O-])c1 [3,5-Dinitrocatechol] the “Raw Signal” value [1] was 56696 and the Z-score [2] was 0.3105.
COc1ccccc1N1CCN(CCCCNC(=O)c2ccc3ccccc3c2)CC1 [BP 897] was tested, and the “Raw Signal” value [3] was 60942 and the Z-score [4] was 0.5335.
For CC(C)NCC(O)c1ccc(NS(C)(=O)=O)cc1.Cl (racemic) [(±)-Sotalol hydrochloride], the “Raw Signal” value [1] was 55236 and the Z-score [5] was -0.1531.
CC(Cc1ccc(O)cc1)NCC(O)c1cc(O)cc(O)c1 (stereo not drawn) [Fenoterol hydrobromide] was tested, and the “Raw Signal” value [1] was 56195 and the Z-score [2] was 0.2088.
In the case of Cc1c(CC(C)(C)C(=O)O)n(Cc2ccc(Cl)cc2)c2ccc(F)cc12 [L-655,240], the “Raw Signal” value [6] was 51424 and the Z-score [7] was -0.499.
For COc1ccc2[nH]cc(CCN)c2c1.Cl [O-Methylserotonin hydrochloride], the “Raw Signal” value [1] was 53655 and the Z-score [5] was -0.1241.
In the case of CN(C)C(=O)C(CCN1CCC(O)(c2ccc(Cl)cc2)CC1)(c1ccccc1)c1ccccc1 [Loperamide hydrochloride], the “Raw Signal” value [6] was 51056 and the Z-score [7] was -0.5608.
With O=c1c2ccccc2[se]n1-c1ccccc1 [Ebselen] the “Raw Signal” value [1] was 54986 and the Z-score [2] was -0.03677.
O=C1CC2(CCCC2)CC(=O)N1CCCCN1CCN(c2ncccn2)CC1 [Buspirone hydrochloride] was tested, and the “Raw Signal” value [3] was 60893 and the Z-score [4] was 0.5248.
C=CCN1CC[C@]2(C)c3cc(O)ccc3C[C@H]1[C@H]2C.Cl [(+)-N-Allylnormetazocine hydrochloride] was tested, and the “Raw Signal” value [6] was 54138 and the Z-score [7] was -0.6649.
With Cl.Cn1ccc2cc(NC(=O)Nc3cccnc3)ccc21 [SB 200646 hydrochloride] the “Raw Signal” value [1] was 55663 and the Z-score [5] was -0.3963.
In the case of O=c1[nH]c2cc(Cl)c(Cl)cc2[nH]c1=O [6,7-Dichloroquinoxaline-2,3-dione], the “Raw Signal” value [1] was 56553 and the Z-score [2] was 0.2815.
For C[N+](C)(C)CCOC(=O)CBr.[Br-] [Bromoacetylcholine bromide], the “Raw Signal” value [6] was 53767 and the Z-score [7] was -0.7302.
For CC(C)(C)NCC(O)c1ccc(O)c(CO)c1.CC(C)(C)NCC(O)c1ccc(O)c(CO)c1.O=S(=O)(O)O (stereo not drawn) [Albuterol hemisulfate], the “Raw Signal” value [1] was 54773 and the Z-score [5] was -0.243.
In the case of Nc1nccc2c1ncn2[C@@H]1O[C@H](CO)[C@@H](O)[C@H]1O [3-deazaadenosine], the “Raw Signal” value [6] was 51727 and the Z-score [7] was -0.6986.
CNCC(O)c1ccc(O)cc1 (racemic) [(±)-Synephrine] was tested, and the “Raw Signal” value [1] was 56579 and the Z-score [2] was 0.1079.
CCOC(=O)C1=C(C)NC(C)=C(C(=O)OC)C1c1cccc([N+](=O)[O-])c1 (stereo not drawn) [Nitrendipine] was tested, and the “Raw Signal” value [3] was 58110 and the Z-score [4] was 0.6245.
CN[C@@H](C)[C@H](O)c1ccccc1.CN[C@@H](C)[C@H](O)c1ccccc1.O=S(=O)(O)O [(-)-Ephedrine hemisulfate] was tested, and the “Raw Signal” value [1] was 54708 and the Z-score [5] was -0.09323.
In the case of CCSC(=N)Nc1ccc(C(F)(F)F)cc1.Cl [TFPI hydrochloride], the “Raw Signal” value [1] was 53926 and the Z-score [5] was -0.4076.
Cl.c1ccc2c(N3CCNCC3)cccc2c1 [1-(1-Naphthyl)piperazine hydrochloride] was tested, and the “Raw Signal” value [1] was 55645 and the Z-score [2] was -0.07359.
In the case of C=C(C)[C@H]1Cc2c(ccc3c2O[C@@H]2COc4cc(OC)c(OC)cc4[C@@H]2C3=O)O1 [Rotenone], the “Raw Signal” value [3] was 59768 and the Z-score [4] was 0.7274.
CC/C(=C(\c1ccccc1)c1ccc(OCCN(C)C)cc1)c1ccccc1 [Tamoxifen citrate] was tested, and the “Raw Signal” value [3] was 60879 and the Z-score [4] was 0.9433.
For CN1CCc2cc(Cl)c(O)cc2[C@@H](c2ccccc2)C1.Cl [R(+)-SCH-23390 hydrochloride], the “Raw Signal” value [1] was 55189 and the Z-score [2] was 0.004461.
CC(=N)NCCCC[C@H](N)C(=O)O.Cl [L-N6-(1-Iminoethyl)lysine hydrochloride] was tested, and the “Raw Signal” value [1] was 52153 and the Z-score [5] was -0.3765.
For Nc1nc2c(nc(Br)n2[C@@H]2O[C@@H]3COP(=O)([O-])O[C@H]3[C@H]2O)c(=O)[nH]1.[Na+] [8-Bromo-cGMP sodium], the “Raw Signal” value [1] was 55323 and the Z-score [5] was -0.4562.
For COc1cc(CNC(=O)CCCCCCC(C)C)ccc1O [Dihydrocapsaicin], the “Raw Signal” value [1] was 52937 and the Z-score [5] was -0.2447.
For c1ccc(-c2ccccn2)nc1 [2,2 -Bipyridyl], the “Raw Signal” value [1] was 56711 and the Z-score [2] was 0.3136.
For Cn1cc(C2=C(c3ccc(Cl)cc3Cl)C(=O)NC2=O)c2ccccc21 [SB 216763], the “Raw Signal” value [3] was 56670 and the Z-score [4] was 0.3825.
In the case of O=C([O-])c1cc2cc(Cc3cccnc3)ccc2o1.[Na+] [Furegrelate sodium], the “Raw Signal” value [1] was 53193 and the Z-score [5] was -0.4009.
In the case of Br.C=CCN1CCc2c(cc(O)c(O)c2Br)[C@@H](c2ccccc2)C1 [R(+)-6-Bromo-APB hydrobromide], the “Raw Signal” value [1] was 58651 and the Z-score [2] was 0.13.
For CN(C)CCC(c1ccc(Cl)cc1)c1ccccn1.O=C(O)/C=C\C(=O)O (racemic) [(±)-Chlorpheniramine maleate], the “Raw Signal” value [3] was 60371 and the Z-score [4] was 0.4329.
In the case of Clc1ccccc1C(c1ccccc1)(c1ccccc1)n1ccnc1 [Clotrimazole], the “Raw Signal” value [3] was 61041 and the Z-score [4] was 0.5509.
In the case of Cn1ccc2cc3c(cc21)CCN3C(=O)Nc1cccnc1 [SB 206553 hydrochloride], the “Raw Signal” value [1] was 56981 and the Z-score [2] was 0.186.
With O=C(O)C1CCCNC1 (racemic) [(±)-Nipecotic acid] the “Raw Signal” value [3] was 63719 and the Z-score [4] was 1.023.
In the case of CCCn1c(=O)c2[nH]c(-c3ccc(OCC(=O)NCCN)cc3)nc2n(CCC)c1=O [Xanthine amine congener], the “Raw Signal” value [3] was 61437 and the Z-score [4] was 1.052.
With CCn1c(=O)[nH]c2cc(Cl)c(Cl)cc21 [DCEBIO] the “Raw Signal” value [6] was 52025 and the Z-score [7] was -0.6381.
For CN1CCCC1c1cccnc1.O=C(O)C(O)C(O)C(=O)O (single isomer, unassigned; (-)) [(-)-Nicotine hydrogen tartrate salt], the “Raw Signal” value was 64466 and the Z-score was 1.692.
With CCc1c(C(=O)OC)ncc2[nH]c3cc(OC)c(OC)cc3c12 the “Raw Signal” value [3] was 57006 and the Z-score [4] was 0.3735.
In the case of CCCNC(C)C(=O)Nc1ccccc1C (stereo not drawn) [Prilocaine hydrochloride], the “Raw Signal” value [1] was 55610 and the Z-score [2] was -0.08039.
O=P(O)(O)C(Cl)(Cl)P(=O)(O)O [Clodronic acid] was tested, and the “Raw Signal” value [1] was 56368 and the Z-score [2] was 0.2439.
Cl.Oc1cc2c(cc1O)C(c1ccccc1)CNCC2 (racemic) [(±)-SKF-38393 hydrochloride] was tested, and the “Raw Signal” value [6] was 48418 and the Z-score [7] was -1.371.
In the case of C=CC[C@H](N)C(=O)O [L-allylglycine], the “Raw Signal” value [1] was 58984 and the Z-score [2] was 0.1886.
With N/C(=N\C(=O)c1nc(Cl)c(N)nc1N)NCc1ccc(Cl)c(Cl)c1 [3 ,4 -Dichlorobenzamil] the “Raw Signal” value [1] was 56444 and the Z-score [2] was 0.2593.
With CCN1CCc2nc(N)oc2CC1.Cl.Cl [B-HT 933 dihydrochloride] the “Raw Signal” value [1] was 56378 and the Z-score [5] was -0.2704.
For NC(=O)c1cc[n+](CC2=C(C(=O)[O-])N3C(=O)[C@@H](NC(=O)C(c4ccccc4)S(=O)(=O)[O-])[C@H]3SC2)cc1.O.[Na+] (stereo partly drawn) [Cefsulodin sodium salt hydrate], the “Raw Signal” value [1] was 56779 and the Z-score [5] was -0.1997.
With CC(C)(C)c1ccc(C(O)CCCN2CCC(C(O)(c3ccccc3)c3ccccc3)CC2)cc1 (stereo not drawn) [Terfenadine] the “Raw Signal” value [1] was 53926 and the Z-score [5] was -0.4076.
COc1c2c(nc3ccccc13)OC(C(C)(O)CO)C2 (stereo not drawn) [Dubinidine] was tested, and the “Raw Signal” value [6] was 52835 and the Z-score [7] was -0.4736.
With CC(C)NCC(O)c1cc(O)cc(O)c1.CC(C)NCC(O)c1cc(O)cc(O)c1.O=S(=O)(O)O (stereo not drawn) [Metaproterenol hemisulfate] the “Raw Signal” value [1] was 55094 and the Z-score [2] was 0.1177.
Cc1cn[nH]c1.Cl [4-Methylpyrazole hydrochloride] was tested, and the “Raw Signal” value [6] was 63526 and the Z-score (LOPAC single-point screen, Z-score from plate average and StDev) was 1.5345.
For Clc1ccc(C(c2ccccc2Cl)C(Cl)Cl)cc1 (stereo not drawn), the “Raw Signal” value [1] was 59387 and the Z-score [2] was 0.2596.
C=CCc1ccccc1OCC(O)CNC(C)C (stereo not drawn) [Alprenolol hydrochloride] was tested, and the “Raw Signal” value [3] was 60855 and the Z-score [4] was 0.5181.
For CC(O)C(C)OC(=O)[C@@H]1C[C@@H]2c3cccc4c3c(cn4C(C)C)C[C@H]2N(C)C1.O=C(O)/C=C\C(=O)O (stereo partly drawn) [LY-53,857 maleate], the “Raw Signal” value [3] was 58270 and the Z-score [4] was 0.6514.
For CC(C)NCC(O)COc1ccc(CCOCC2CC2)cc1 (stereo not drawn) [Betaxolol hydrochloride], the “Raw Signal” value [1] was 59138 and the Z-score [2] was 0.2157.
In the case of COc1ccc2c(c1)c(CC(=O)N1CCOCC1)c(C)n2C(=O)c1ccc(Cl)cc1 [Indomethacin morpholinylamide], the “Raw Signal” value [1] was 52785 and the Z-score [5] was -0.2703.
In the case of C[C@@H]1O[C@H](C[N+](C)(C)C)CS1.[I-] [OXA-22 iodide], the “Raw Signal” value [3] was 57438 and the Z-score [4] was 0.4612.
With O=C1C(SCCO)=C(SCCO)C(=O)c2ccccc21 [NSC 95397] the “Raw Signal” value [1] was 55516 and the Z-score [2] was 0.07087.
In the case of Cl.O=C(Cc1ccc(Cl)c(Cl)c1)N1CCCCC1CN1CCCC1 (stereo not drawn) [BRL 52537 hydrochloride], the “Raw Signal” value [1] was 55058 and the Z-score [5] was -0.1876.
CCCCc1oc2ccccc2c1C(=O)c1cc(I)c(OCCN(CC)CC)c(I)c1 [Amiodarone hydrochloride] was tested, and the “Raw Signal” value [1] was 57216 and the Z-score [5] was -0.1228.
